This passage reports IC50 results from patent publication US10738056B2 (Aduro BioTech, Inc., priority 2017, dated 2020).

By IC50 is commonly meant the concentration that gives 50% inhibition.

Bounds are passed on as bounds.

Test [1] concerns the target Human cGAS amino acids 155-522 (Homo sapiens (Human), UniProt Q8N884). As to the kind of experiment: cGAS biochemical activity assay (ATP remaining, Kinase-Glo Max luminescence). The settings on record: human cGAS 155-522, ATP remaining (Kinase-Glo Max); read-out: cGAS IC50. (Kinase-Glo measures the ATP left after a reaction by luminescence.)
The subject of test [2] is cGAS/STING pathway in THP1 cells. As to the kind of experiment: THP1 cell-based cGAS/STING pathway activity assay (IRF-3-linked luciferase reporter). The settings on record: Homo sapiens, THP-1. The text has this: A cellular assay can be used to assess the compounds of the invention for their ability to inhibit the cGAS/STING pathway. Cells that express a luciferase-based reporter that is linked to IRF-3 activation are used to determine response as a function of compound concentration. Such an assay is described in Vincent et al., Nature Communications 2017, 8(1):750, doi: 10.1038/s41467-017-00833-9.
A cellular assay can be used to assess the compounds of the invention for their ability to inhibit the cGAS/STING pathway. Cells that express a luciferase-based reporter that is linked to IRF-3 activation are used to determine response as a function of compound concentration. Such an assay is described in Vincent et al., Nature Communications 2017, 8(1):750, doi: 10.1038/s41467-017-00833-9. Compounds of the invention were assessed using similar assay methods in a THP1 cell assay to generate IC50 values as provided in the following Table 16. In this table, activity level “A” indicates an IC50 value less than 20 μM, “B” indicates an IC50 value between 20 and 100 μM, and “C” indicates an IC50 value above the upper limit of the assay (100 μM), or where an IC50 value could not be generated from the data.

Human cGAS amino acids 155-522, sequence (Q8N884 157-522): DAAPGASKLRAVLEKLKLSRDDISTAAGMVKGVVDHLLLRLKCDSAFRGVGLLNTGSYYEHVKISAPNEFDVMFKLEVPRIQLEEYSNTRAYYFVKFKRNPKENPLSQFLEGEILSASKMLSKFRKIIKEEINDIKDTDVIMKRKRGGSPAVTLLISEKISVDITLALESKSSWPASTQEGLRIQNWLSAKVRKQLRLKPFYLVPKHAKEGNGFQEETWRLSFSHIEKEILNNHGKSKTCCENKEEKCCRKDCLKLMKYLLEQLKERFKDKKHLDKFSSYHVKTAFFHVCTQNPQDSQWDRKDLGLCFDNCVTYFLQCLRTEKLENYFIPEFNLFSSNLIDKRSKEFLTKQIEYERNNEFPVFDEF

Turning to `COc1cccc2oc(-c3c(N)[nH]c4c(-c5ccccc5)c(C(F)(F)F)nn4c3=O)nc12` [Compound C1085, 5-amino-6-(4-methoxybenzo[d]oxazol-2-yl)-3-phenyl-2-(trifluoromethyl)pyrazolo[1,5-a]pyrimidin-7(4H)-one], the IC50 in test [1] is under 20 µM; in test [2] it was over 100 µM.
In the same order, the values of `Cc1[nH]c2c(-c3ccccc3)c(C(F)(F)F)nn2c(=O)c1-c1nc2c(OC(C)C)cccc2o1` [Compound C1039, 6-(4-isopropoxybenzo[d]oxazol-2-yl)-5-methyl-3-phenyl-2-(trifluoromethyl)pyrazolo[1,5-a]pyrimidin-7(4H)-one] are under 20 µM and over 100 µM.
In the same order, the values of `COCc1[nH]c2c(-c3ccccc3)c(C(F)(F)F)nn2c(=O)c1-c1ncc(C2CCCC2)o1` [Compound C1013, 6-(5-cyclopentyloxazol-2-yl)-5-(methoxymethyl)-3-phenyl-2-(trifluoromethyl)pyrazolo[1,5-a]pyrimidin-7(4H)-one] are over 250 µM and under 20 µM.
On to `Cc1nn2c(=O)c(-c3nc4c(o3)CCCC4)c(C)[nH]c2c1-c1ccccc1` [Compound C1032, 2,5-dimethyl-3-phenyl-6-(4,5,6,7-tetrahydrobenzo[d]oxazol-2-yl)pyrazolo[1,5-a]pyrimidin-7(4H)-one], for which the half-inhibitory concentration (IC50) in test [1] was under 20 µM; in test [2], 20 to 100 µM.
On the same counts, the results for `COc1cccc(NC(=O)c2c(C)[nH]c3c(-c4ccccc4)c(C(F)(F)F)nn3c2=O)c1F` [Compound A1136, N-(2-fluoro-3-methoxyphenyl)-5-methyl-7-oxo-3-phenyl-2-(trifluoromethyl)-4,7-dihydropyrazolo[1,5-a]pyrimidine-6-carboxamide] are under 20 µM and 20 to 100 µM.
On the same counts, the results for `COc1c(N)ccc2oc(-c3c(C)[nH]c4c(-c5ccccc5)c(C#N)nn4c3=O)nc12` [Compound C1250, 6-(5-amino-4-methoxybenzo[d]oxazol-2-yl)-5-methyl-7-oxo-3-phenyl-4,7-dihydropyrazolo[1,5-a]pyrimidine-2-carbonitrile] are under 20 µM and over 100 µM.
Take `Cc1[nH]c2c(-c3ccccc3)c(C(F)(F)F)nn2c(=O)c1-c1nc2ccccc2n1CC(F)(F)F` [Compound C1231, 5-methyl-3-phenyl-6-(1-(2,2,2-trifluoroethyl)-1H-benzo[d]imidazol-2-yl)-2-(trifluoromethyl)pyrazolo[1,5-a]pyrimidin-7(4H)-one]: the IC50 is 20 to 250 µM in test [1] and under 20 µM in test [2].
In the same order, the values of `COc1cccc2oc(-c3c(COC4COC4)[nH]c4c(-c5ccccc5)c(C#N)nn4c3=O)nc12` [Compound C1259, 6-(4-methoxybenzo[d]oxazol-2-yl)-5-((oxetan-3-yloxy)methyl)-7-oxo-3-phenyl-4,7-dihydropyrazolo[1,5-a]pyrimidine-2-carbonitrile] are under 20 µM and over 100 µM.
Take `Cc1[nH]c2c(-c3ccccc3)c(C(F)(F)F)nn2c(=O)c1C(=O)N1CCCC1` [Compound A1009, 5-methyl-3-phenyl-6-(pyrrolidine-1-carbonyl)-2-(trifluoromethyl)pyrazolo[1,5-a]pyrimidin-7(4H)-one]: in test [1], the half-inhibitory concentration (IC50) is over 250 µM.
Still for that read-out and setting: under `Cc1[nH]c2c(-c3ccccc3)c(C(F)(F)F)nn2c(=O)c1-c1nnc(C2CCN(S(C)(=O)=O)CC2)o1` [Compound D1053, 5-methyl-6-(5-(1-(methylsulfonyl)piperidin-4-yl)-1,3,4-oxadiazol-2-yl)-3-phenyl-2-(trifluoromethyl)pyrazolo[1,5-a]pyrimidin-7(4H)-one] stands 20 to 250 µM.
For the compound `COc1c(Cl)cccc1NC(=O)c1c(C)[nH]c2c(-c3ccccc3)c(C(F)(F)F)nn2c1=O` [Compound A1138, N-(3-chloro-2-methoxyphenyl)-5-methyl-7-oxo-3-phenyl-2-(trifluoromethyl)-4,7-dihydropyrazolo[1,5-a]pyrimidine-6-carboxamide], the half-inhibitory concentration (IC50) in test [1] was in the range of 20 to 250 µM.
In the case of `Cc1[nH]c2c(-c3ccccc3)c(C(F)(F)F)nn2c(=O)c1-c1nnc(-c2cccnc2O)o1` [Compound D1067, 6-(5-(2-hydroxypyridin-3-yl)-1,3,4-oxadiazol-2-yl)-5-methyl-3-phenyl-2-(trifluoromethyl)pyrazolo[1,5-a]pyrimidin-7(4H)-one], the IC50 in test [1] is under 20 µM.
`CNC(=O)COCc1[nH]c2c(-c3ccccc3)c(C(F)(F)F)nn2c(=O)c1-c1nc2c(OC)cccc2o1` [Compound C1199, 2-((6-(4-methoxybenzo[d]oxazol-2-yl)-7-oxo-3-phenyl-2-(trifluoromethyl)-4,7-dihydropyrazolo[1,5-a]pyrimidin-5-yl)methoxy)-N-methylacetamide]: in test [1], the 50% inhibitory concentration (IC50) is 20 to 250 µM.
The same measure, in the same setting: for `Cc1[nH]c2c(-c3ccccc3)c(C(F)(F)F)nn2c(=O)c1C(=O)N1CCN(c2ccccc2)CC1` [Compound A1003, 5-methyl-3-phenyl-6-(4-phenylpiperazine-1-carbonyl)-2-(trifluoromethyl)pyrazolo[1,5-a]pyrimidin-7(4H)-one] the value was over 250 µM; for `COc1cccc2c1CN(c1c(C)[nH]c3c(-c4ccccc4)c(C(F)(F)F)nn3c1=O)C2=O` [Compound C1220, 6-(4-methoxy-1-oxoisoindolin-2-yl)-5-methyl-3-phenyl-2-(trifluoromethyl)pyrazolo[1,5-a]pyrimidin-7(4H)-one], 20 to 250 µM.
On the same count and under the same terms, under `COc1ccncc1NC(=O)c1c(C)[nH]c2c(-c3ccccc3)c(C(F)(F)F)nn2c1=O` [Compound A1103, N-(4-methoxypyridin-3-yl)-5-methyl-7-oxo-3-phenyl-2-(trifluoromethyl)-4,7-dihydropyrazolo[1,5-a]pyrimidine-6-carboxamide] stands 20 to 250 µM; under `Cc1[nH]c2c(-c3ccccc3)c(C(F)(F)F)nn2c(=O)c1-c1nnc(-c2cccc(N)c2)o1` [Compound D1079, 6-(5-(3-aminophenyl)-1,3,4-oxadiazol-2-yl)-5-methyl-3-phenyl-2-(trifluoromethyl)pyrazolo[1,5-a]pyrimidin-7(4H)-one], over 250 µM; under `Cc1[nH]c2c(-c3ccccc3)c(C(F)(F)F)nn2c(=O)c1C(=O)N[C@H]1CCNC1` [Compound A1035, (S)-5-methyl-7-oxo-3-phenyl-N-(pyrrolidin-3-yl)-2-(trifluoromethyl)-4,7-dihydropyrazolo[1,5-a]pyrimidine-6-carboxamide], over 250 µM.
Still for that read-out and setting: under `COc1cccn2nc(-c3c(C)[nH]c4c(-c5ccccc5)c(C(F)(F)F)nn4c3=O)nc12` [Compound C1110, 6-(8-methoxy-[1,2,4]triazolo[1,5-a]pyridin-2-yl)-5-methyl-3-phenyl-2-(trifluoromethyl)pyrazolo[1,5-a]pyrimidin-7(4H)-one] stands 20 to 250 µM; under `Cc1nnc(-c2c(C)[nH]c3c(-c4ccccc4)c(C(F)(F)F)nn3c2=O)o1` [Compound D1001, 5-methyl-6-(5-methyl-1,3,4-oxadiazol-2-yl)-3-phenyl-2-(trifluoromethyl)pyrazolo[1,5-a]pyrimidin-7(4H)-one], 20 to 250 µM; under `COc1cccc2oc(-c3c(C(=O)N[C@H](CO)C(C)C)[nH]c4c(-c5ccccc5)c(C(F)(F)F)nn4c3=O)nc12` [Compound C1208, (S)-N-(1-hydroxy-3-methylbutan-2-yl)-6-(4-methoxybenzo[d]oxazol-2-yl)-7-oxo-3-phenyl-2-(trifluoromethyl)-4,7-dihydropyrazolo[1,5-a]pyrimidine-5-carboxamide], 20 to 250 µM.
`COc1cccc2oc(-c3c(C)[nH]c4c(-c5ccc(C#N)cc5)c(C(F)(F)F)nn4c3=O)nc12` [Compound C1164, 4-(6-(4-methoxybenzo[d]oxazol-2-yl)-5-methyl-7-oxo-2-(trifluoromethyl)-4,7-dihydropyrazolo[1,5-a]pyrimidin-3-yl)benzonitrile]: the IC50 in test [1] is over 250 µM.
Still for that read-out and setting: under `COc1ncccc1-c1nnc(-c2c(C)[nH]c3c(-c4ccccc4)c(C(F)(F)F)nn3c2=O)o1` [Compound D1064, 6-(5-(2-methoxypyridin-3-yl)-1,3,4-oxadiazol-2-yl)-5-methyl-3-phenyl-2-(trifluoromethyl)pyrazolo[1,5-a]pyrimidin-7(4H)-one] stands over 250 µM; under `Cc1[nH]c2c(-c3ccccc3)c(C(F)(F)F)nn2c(=O)c1C(=O)Nc1ccccc1NS(=O)(=O)C1CCCCC1` [Compound A1119, N-(2-(cyclohexanesulfonamido)phenyl)-5-methyl-7-oxo-3-phenyl-2-(trifluoromethyl)-4,7-dihydropyrazolo[1,5-a]pyrimidine-6-carboxamide], 20 to 250 µM.
Still for that read-out and setting: under `Cc1[nH]c2c(-c3ccccc3)c(C(F)(F)F)nn2c(=O)c1C(=O)Nc1nc[nH]n1` [Compound A1040, 5-methyl-7-oxo-3-phenyl-N-(1H-1,2,4-triazol-3-yl)-2-(trifluoromethyl)-4,7-dihydropyrazolo[1,5-a]pyrimidine-6-carboxamide] stands 20 to 250 µM; under `Cc1[nH]c2c(-c3ccccc3)c(C(F)(F)F)nn2c(=O)c1C(=O)Nc1cccc(OCc2ccccc2)c1` [Compound A1086, N-(3-(benzyloxy)phenyl)-5-methyl-7-oxo-3-phenyl-2-(trifluoromethyl)-4,7-dihydropyrazolo[1,5-a]pyrimidine-6-carboxamide], under 20 µM.
